The values below are quoted from earlier work in patent publication US20140031310A1, “PHARMACEUTICAL COMPOSITIONS AND METHODS FOR MAKING AND USING THEM” (priority 2011, published 2014).

For data set [1] the following is noted: in vivo.
For data set [2] the following is noted: in vivo. This is another data set of the same source.

As for `CNC(=O)c1cc(Oc2ccc(NC(=O)Nc3ccc(Cl)c(C(F)(F)F)c3)cc2)ccn1` [sorafenib], the pharmacokinetic half-life in data set [1] is 20 to 24 h.

In the case of bevacizumab: anti-VEGF mAb, in data set [2], the “leads to HFSR / skin toxicity” value was “Neither anti-VEGF mAbs (bevacizumab) nor PDGF-R inhibitors (e.g., imatinib) lead to HFSR”.
